Laboratory results taken from patent publication US20200407717A1, “METHODS OF MODULATING ANTISENSE ACTIVITY” (Ionis Pharmaceuticals, Inc., priority 2018, published 2020).
e = 2'-O-(2-methoxyethyl) (MOE); d = 2'-deoxy (DNA)

Test system: Malat1 RNA
Test: Antisense activity by RT-qPCR, Malat1, A431 cells
Format: cell-based
Experimental: A431 cells were grown at 10,000 cells per well and pre-treated with a variety of growth factors to determine if the addition of exogenous growth factors affects antisense activity or uptake of modified antisense oligonucleotides in a cell. The growth factors used were EGF, insulin growth factor (IGF), transforming growth factor (TGF), […] (VEGF), hepatocyte growth factor (HGF), platelet growth factor (PGF) and fibroblasts growth factor (FGF). To test antisense activity, cells were treated for 4 hours with a growth factor or vehicle alone, and then treated with compound no. 25690 (complementary to Drosha), compound no. 395254 (complementary to Malat1), or vehicle alone. RNA was isolated from the cells and Drosha or Malat1 RNA levels were measured by RT-qPCR. Human primer probe set 13816 (forward sequence […], designated herein as SEQ ID NO: 3; reverse sequence […], designated herein as SEQ ID NO: 4; probe sequence […], designated herein as SEQ ID NO: 5) was used to measure Drosha mRNA levels and primer probe set RTS2736 (forward sequence […], designated herein as SEQ ID NO: 6; reverse sequence […], designated herein as SEQ ID NO: 7; probe sequence TGCCACATCGCCACCCCGT, designated herein as SEQ ID NO: 8) was used to measure Malat1 RNA levels. Drosha and Malat1 RNA levels were normalized to total RNA content, as measured by RIBOGREEN®. Results are presented in the tables below as normalized RNA levels, relative to untreated control cells.
A431 cells were treated with EGF or TGF at 200 ng/mL in the presence or absence of 1 μM of the EGFR tyrosine kinase inhibitor PD174265. The cells were then treated with compound no. 25690 or compound no. 395254 as in Example 8. Total RNA was isolated and analyzed by RT-qPCR, as in Example 8.
Following siRNA treatment, cells were treated with compound no. 25690 or compound no. 395254 in the presence or absence of EGF. 16 hours after treatment with a PS-ASO with or without EGF, cells were harvested, and RNA levels were analyzed via RT-qPCR as in Example 8.

In the case of “AGGAAGGAAGCTGGCGATCT (sugars from the 5' end e5 d10 e5, all phosphorothioate, methylation of C not given here) [compound 25690]”, the “Malat1 RNA (% Control)” value (2.0 nM, Control, Table 19) is reported as 100.0 % Control, the “Malat1 RNA (% Control)” value (2.0 nM, EGF+PD174265) is reported as 100.0 % Control and the “Malat1 RNA (% Control)” value (2.0 nM, EGF, Table 19) is reported as 100.0 % Control. For the same sequence, the “Malat1 RNA (% Control)” value (3.9 nM, Control, Table 19) was 99.2 % Control, the “Malat1 RNA (% Control)” value (3.9 nM, EGF+PD174265) was 110.0 % Control and the “Malat1 RNA (% Control)” value (3.9 nM, EGF, Table 19) was 105.0 % Control. For the same sequence, the “Malat1 RNA (% Control)” value (7.8 nM, Control, Table 19) was 98.2 % Control, the “Malat1 RNA (% Control)” value (7.8 nM, EGF+PD174265) was 97.2 % Control and the “Malat1 RNA (% Control)” value (7.8 nM, EGF, Table 19) was 78.2 % Control. The “Malat1 RNA (% Control)” value (15.6 nM, Control, Table 19) was 72.3 % Control, the “Malat1 RNA (% Control)” value (15.6 nM, EGF+PD174265) was 61.2 % Control and the “Malat1 RNA (% Control)” value (15.6 nM, EGF, Table 19) was 60.1 % Control. For the same sequence, the “Malat1 RNA (% Control)” value (31.3 nM, Control, Table 19) was 64.4 % Control, the “Malat1 RNA (% Control)” value (31.3 nM, EGF+PD174265) was 59.8 % Control and the “Malat1 RNA (% Control)” value (31.3 nM, EGF, Table 19) was 40.5 % Control. The “Malat1 RNA (% Control)” value (62.5 nM, Control, Table 19) was 59.6 % Control, the “Malat1 RNA (% Control)” value (62.5 nM, EGF+PD174265) was 50.2 % Control and the “Malat1 RNA (% Control)” value (62.5 nM, EGF, Table 19) was 43.9 % Control. The “Malat1 RNA (% Control)” value (125 nM, Control, Table 19) was 46.2 % Control, the “Malat1 RNA (% Control)” value (125 nM, EGF+PD174265) was 39.6 % Control and the “Malat1 RNA (% Control)” value (125 nM, EGF, Table 19) was 25.9 % Control. For the same sequence, the “Malat1 RNA (% Control)” value (250 nM, Control, Table 19) was 36.1 % Control, the “Malat1 RNA (% Control)” value (250 nM, EGF+PD174265) was 45.6 % Control and the “Malat1 RNA (% Control)” value (250 nM, EGF, Table 19) was 18.9 % Control. For the same sequence, the “Malat1 RNA (% Control)” value (500 nM, Control, Table 19) was 35.5 % Control, the “Malat1 RNA (% Control)” value (500 nM, EGF+PD174265) was 42.5 % Control and the “Malat1 RNA (% Control)” value (500 nM, EGF, Table 19) was 14.5 % Control. For the same sequence, the “Malat1 RNA (% Control)” value (1000 nM, Control, Table 19) was 22.3 % Control, the “Malat1 RNA (% Control)” value (1000 nM, EGF+PD174265) was 22.3 % Control and the “Malat1 RNA (% Control)” value (1000 nM, EGF, Table 19) was 15.2 % Control. For the same sequence, the “Malat1 RNA (% Control)” value (2000 nM, Control, Table 19) was 19.2 % Control, the “Malat1 RNA (% Control)” value (2000 nM, EGF+PD174265) was 15.3 % Control and the “Malat1 RNA (% Control)” value (2000 nM, EGF, Table 19) was 12.4 % Control. The “Malat1 RNA (% Control)” value (4000 nM, Control, Table 19) was 17.2 % Control, the “Malat1 RNA (% Control)” value (4000 nM, EGF+PD174265) was 13.2 % Control and the “Malat1 RNA (% Control)” value (4000 nM, EGF, Table 19) was 10.2 % Control. The IC50 (Control, Table 19) was 43 ± 5.7 nM, the IC50 (EGF 200 ng/mL + 1 μM PD174265, Table 19) was 47 ± 5.3 nM and the IC50 (EGF 200 ng/mL, Table 19) was 19 ± 3 nM.
